The source of these data is patent US9555024B2, “Substituted (E)-N′-(1-phenylethylidene)benzohydrazide analogs as histone demethylase inhibitors” (University of Utah Research Foundation, priority 2011, dated 2017).

The target of one experiment is MAO B (Homo sapiens (Human), UniProt P27338). Put plainly: Monoamine Oxidase assay (MAO-Glo Assay Kit). The following applies: result in words.
The test system of the next experiment is heme oxygenase (HMOX). Put plainly: Real-Time PCR of heme oxygenase (HMOX) expression in T-47D cells. It is filed as cell-based, human. The following applies: normalized to HPRT and β-actin.
Another experiment concerns T-47D cells. Put plainly: Cell Viability Assay (ATPlite). It is filed as cell-based. Conditions: Homo sapiens, T47D, 96-hours of incubation, read-out: Cell Growth, IC50.
A further experiment concerns the target MAO A (Homo sapiens (Human), UniProt P21397). Put plainly: Monoamine Oxidase assay (MAO-Glo Assay Kit). The following applies: result in words.

Chain of MAO B (P27338 whole entry): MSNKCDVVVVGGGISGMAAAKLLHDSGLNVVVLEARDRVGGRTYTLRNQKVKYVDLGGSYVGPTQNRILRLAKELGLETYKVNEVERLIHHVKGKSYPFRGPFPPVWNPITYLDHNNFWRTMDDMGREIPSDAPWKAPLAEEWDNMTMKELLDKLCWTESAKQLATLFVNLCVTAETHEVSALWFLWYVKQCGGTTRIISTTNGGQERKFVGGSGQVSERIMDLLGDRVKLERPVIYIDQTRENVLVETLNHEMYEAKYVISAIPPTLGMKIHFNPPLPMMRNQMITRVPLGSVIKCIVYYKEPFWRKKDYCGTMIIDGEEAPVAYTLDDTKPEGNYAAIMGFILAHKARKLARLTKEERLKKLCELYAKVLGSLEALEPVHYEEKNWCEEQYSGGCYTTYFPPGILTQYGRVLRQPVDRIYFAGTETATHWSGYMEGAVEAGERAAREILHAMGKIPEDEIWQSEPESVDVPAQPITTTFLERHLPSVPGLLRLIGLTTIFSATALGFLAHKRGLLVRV
Chain of MAO A (P21397 whole entry): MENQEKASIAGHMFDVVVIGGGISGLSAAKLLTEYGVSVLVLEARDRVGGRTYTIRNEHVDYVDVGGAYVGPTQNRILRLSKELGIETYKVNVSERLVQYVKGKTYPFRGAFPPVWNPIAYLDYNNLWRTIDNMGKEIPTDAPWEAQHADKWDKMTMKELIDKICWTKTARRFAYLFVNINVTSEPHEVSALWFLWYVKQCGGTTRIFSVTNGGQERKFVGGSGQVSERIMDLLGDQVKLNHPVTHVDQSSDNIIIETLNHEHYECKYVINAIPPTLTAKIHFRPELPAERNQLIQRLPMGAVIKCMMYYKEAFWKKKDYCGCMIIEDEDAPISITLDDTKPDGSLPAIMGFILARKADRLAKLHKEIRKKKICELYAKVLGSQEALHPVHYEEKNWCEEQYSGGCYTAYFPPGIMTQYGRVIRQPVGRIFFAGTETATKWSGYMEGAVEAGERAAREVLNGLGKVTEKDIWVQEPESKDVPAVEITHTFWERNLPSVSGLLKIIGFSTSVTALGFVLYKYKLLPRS
Experimental for MAO A: Recombinant (expressed in baculovirus infected BTI insect cells) monoamine oxidase A and monoamine oxidase B (Catalog No. M7316 and M7441, respectively) were purchased from Sigma-Aldrich Co. LLC. […] MAO-Glo™ Assay Kit was purchased from Promega Corporation (Madison, Wis.).
Briefly, 6.25 μL of test compound was added to each well of a 384-well plate. Enzyme (either MAO A or B) was added (12.5 μL in 2× buffer containing 1 μg protein) and allowed to incubate for 5 minutes. Finally, 6.25 μL of 4×MAO substrate was added to each well. Following a one hour incubation, 25 μL of Luciferin detection reagent was added to each well, and incubated for 20 minutes. Luminescence was then measured on an Envision microplate reader.
IC50 values are determined using GraphPad Prism 5 software. The data were entered as an X-Y plot into the software as percent inhibition for each concentration of the drug. The concentration values of the drug were log transformed and the nonlinear regression was carried out using the “sigmoidal dose-response (variable slope)” option within the GraphPad software to model the data and calculate IC50 values.
Experimental for heme oxygenase (HMOX): Briefly, T-47D cells were seeded in 96-well plates and treated with concentrations of inhibitors as indicated. Cell lysates, Reverse transcription, and single color syber green realtime PCR was performed using the Cells-to-Ct kit (Life Technologies). Transcript levels of heme oxygenase (HMOX) were normalized to hypoxanthine phosphoribosyltransferase (HPRT) and β-actin.

As for `O=C(N/N=C/c1ccccc1O)c1ccc(O)cc1` [Compound 1], the “activity against MAO B” value on MAO B was “comparable activity to tranylcypromine”.

As for `C/C(=N\NC(=O)c1ccccc1)c1c(O)cccc1O` [Compound 14], the “HMOX expression (fold-induction)” value in the experiment on heme oxygenase (HMOX) stood at 1.1 fold-induction. Further, the IC50 with T-47D cells is more than 10 µM.

Take `N[C@@H]1CC1c1ccccc1` (some centres unmarked) [tranylcypromine, reference compound]: at MAO A, the “activity against MAO A” value was “exhibited activity”. For the same molecule, the “activity against MAO B” value at MAO B is listed as “exhibited activity”.
